Measured values from patent EP0100734A1, “Process for the separation or purification of a sleep promoting factor from a biological source by immunological reaction of the antigen-antibody kind” (ANVAR Agence Nationale de Valorisation de la Recherche, priority 1982, dated 1984).

Test system: anticorps monoclonaux anti-MDP
Test: Competitive ELISA: inhibition of binding of MDP-lysine-peroxidase conjugate to captured monoclonal anti-MDP antibody
Design: species or system souris
Method: On a recours à la technique antérieurement. décrite dans l'article de BAHR et Coll. déjà mentionné, sous réserve de quelques modifications de détail. Les éléments essentiels de la méthodologie utilisée sont rappelés ci-après.
Les puits de plaques micro-ELISA (commercialisées par la société DYNATECH) sont tapissés avec des fractions Ig d'anticorps de chèvre anti-souris IgM, IgA ou IgG, par maintien en contact avec leurs parois d'une solution contenant 5 ug/ml de la fraction Ig pendant 3 heures à 4°C. Après lavage de la plaque avec une solution de PBS contenant 0,05 % de l'agent de dispersion commercialisé sous la dénomination TWEEN 20, on ajoute des dilutions des surnageants d'hybridomes producteurs d'anticorps anti-MDP aux différents puits et on incube pendant 2 heures à la température ambiante. Les fractions Ig facilitent la retenue des anticorps anti-MDP. Les plaques sont ensuite lavées et une solution de MDP-lysine couplé à de la péroxydase de raifort diluée au 1/1000 est ajoutée aux puits. Les plaques sont ensuite laissées au repos pendant la nuit à 4°C. Après lavage, on détermine les proportions de MDP-lysine-péroxydase fixées dans les puits, en mettant en oeuvre l'ortho-phénylène-diamine et de l'eau oxygénée en tant que substrat de la péroxydase. […]

Row | inhibitions exprimées par des activités (100 µl of MDP solution containing 100 ng, added together with MDP-peroxidase conjugate (1/1000), antibody diluted 1/100 = 100 % activity) | inhibition (added under the same conditions together with the conjugate, amount not stated) | SMILES
1 | 31% |  | CC(=O)N[C@H]1C(O)O[C@H](CO)[C@@H](O)[C@@H]1O[C@H](C)C(=O)N[C@@H](C)C(=O)N[C@H](CCC(=O)O)C(N)=O (stereo partly drawn) [MDP, M-acétyl-muramyl-L-alanyl-D-isoglutamine]
2 |  | aucune inhibition | CC(=O)N[C@H]1C(O)O[C@H](CO)[C@@H](O)[C@@H]1O[C@H](C)C(=O)N[C@H](C)C(=O)N[C@H](CCC(=O)O)C(N)=O (stereo partly drawn) [MDP-DD, N-acétyl- muramyl- D-alanyl-D-isoglutamine]
